Assay results as given in patent US20190054093A1, “TREATMENT OF SARCOPENIA WITH ECDYSTEROIDS” (priority 2014, published 2019).
Like-named read-outs stand apart in the source and are kept apart here.

What was measured:
MCF7-AR1 cells = test: A-Screen bioassay: androgen-dependent inhibition of E2-induced proliferation; format: cell-based; settings: Homo sapiens; in the presence of E2; read-out: IC50 of inhibition of cell proliferation
Procedure: In this example ATE and RCE were assessed for androgenic activity using the A-screeen assay. MCF7-AR1 is a human cancer-derived cell line which has been genetically engineered to overexpress the androgenic receptor (AR). […] This assay measures androgen-dependent inhibition of proliferation of the androgen receptor (AR)-positive human mammary carcinoma cell line, MCF7-AR1. This cell line has been stably transfected with a full human AR and expresses approximately five times more AR than wild-type cells. MCF7-AR1 cells retain the capacity to proliferate in response to estrogen treatment (E2). Androgens inhibit estrogen-induced proliferation and cells arrest in G0/G1 phase in a dose-dependent manner.
The A-Screen bioassay compares the cell number of similar inocula of MCF-7-AR1 cells growing in media in the absence of any estrogen and androgens (C−, negative control), in the presence of E2 (C+, estrogen control) and in the presence of E2 in combination with different concentrations of the suspected androgen (FIG. 11). Androgenic activity of a test compound results in the inhibition of cell proliferation compared to the E2 control.

[1] = test system: protein synthesis in mouse liver; settings: actinomycin D 2 mg/kg 30 minutes before the test substance; cited from earlier work
[2] = test system: polyribosomes from the livers of mice; settings: cited from earlier work
[3] = test system: Caspase-3 (Casp3) gene expression in C2C12 muscle cells; test: Caspase-3 gene expression in C2C12 myotubes (RT2 Profiler PCR Array, Example 1); format: cell-based, mouse; settings: 20 ppm ATE or 1 μM methandrostenolone, 6 h
Procedure: (§1) The effect of Ajuga turkestanica extract (ATE) standardized to Turkesterone content was studied in muscle cells. […] Cells between passages 3 and 10 were seeded at a density of 10,000 cells per cm^2. Cells were grown for 48 h until they reached 80-90% confluence. […] Cells were maintained at 37° C. in a humidified 5% CO2 incubator and medium was changed every other day.
(§2) For RNA extraction, C2C12 cells were plated and differentiated to myotubes into 12-wells plates. […] RNA was then extracted using an All Prep RNA/Protein Kit (Qiagen, Spain). Total RNA was quantified using a fluorometric method with Quant-iT kit (Invitrogen, Spain). RNA was stored at −80° C. until further use. cDNA was reverse-transcribed from the RNA extract using RT^2 First Stand cDNA kit and we used a RT^2 Profiler PCR Array to analyze a panel of 84 genes involved in skeletal muscle development and disease (Qiagen, Spain). Quantitative real-time RT-PCR was carried out using a SYBR-Green/ROX detection in a MX3005P Q-PCR System. Samples were heated at 95° C. for 10 min, followed by a second stage composed of 15 sec at 95° C., 1 min at 60° C. which was repeated 40 times and third stage for dissociation curve composed of 1 min at 95° C., 30 sec at 55° C. and 30 sec at 95° C. The PCR-array data was analyzed by calculating relative gene expression and statistical significance through the use of known methods.

C2C12 myotubes = test: Protein synthesis by radio-labeled leucine incorporation in C2C12 myotubes (Example 3); format: cell-based, mouse
[4] = test system: myostatin (Mstn) gene expression in C2C12 muscle cells; test: Myostatin gene expression in C2C12 myotubes (RT2 Profiler PCR Array, Example 1); format: cell-based, mouse; settings: 20 ppm ATE or 1 μM methandrostenolone, 6 h
Procedure: as §1, §2

[5] = cited from earlier work; for effect on the sexual apparatus (ventral prostate weight, seminal vesicle weight): sexually immature intact rats
[6] = test system: Caspase-3 expression in C2C12 myotubes; test: Caspase 3 expression in C2C12 myotubes (quantitative RT-PCR, Example 4); format: cell-based, mouse; settings: 24 hours; extracts and turkesterone 0.002, 0.02 and 2 ppm, 20HE 0.001, 0.01 and 1 ppm
Procedure: Experiments similar to those in example 1 have been carried out with two other plant-derived, ecdysteroid-rich extracts. […] Cells between passages 3 and 10 were seeded at a density of 10,000 cells per cm^2. Cells were grown for 48 h until they reached 80-90% confluence. […] Cells were maintained at 37° C. in a humidified 5% CO2 incubator and medium was changed every other day.
For RNA and protein extraction C2C12 myotubes were incubated with 0.002, 0.02 and 2 ppm of Rhaponticum carthamoides extract (RCE) and Cyanotis arachnoidea extract (CAE) or 0.001, 0.01 and 1 ppm of 20-hydroxyecdysone or 0.002, 0.02 and 2 ppm of Turkesterone for 24 hours. These two latter served as positive controls. RNA and protein were extracted using All Prep RNA/Protein Kit (Qiagen, Spain). RNA was stored at −80° C. and protein at −20° C. until further use. Total RNA was quantified using a fluorometric method with Quant-iT kit (Invitrogen, Spain). The cDNA was reverse-transcribed from the RNA extract using RT^2First Stand cDNA kit (Qiagen, Spain). Quantitative real-time RT-PCR for Caspase-3 and Myostatin were carried out using a MX3005P Q-PCR System (Agilent Technologies) and SYBR-Green/ROX detection. The housekeeping gene used was Actb and Mouse XpressRef Universal total RNA (Qiagen, Spain) as a positive control. […] The fold change in gene expression was calculated with ΔΔCt Method.

[7] = cited from earlier work
[8] = castrated sexually immature rats
[9] = sexually mature male rats, 0.5 mg per 100 g intragastrically daily for 10 days
[10] = sexually immature intact rats, 0.5 mg per 100 g intragastrically daily for 10 days

C[C@]1(O)CC[C@H]2[C@@H]3CCC4=CC(=O)CCC4=C3C=C[C@@]21C [Example R1881, methyltrienolone]
IC50 (MCF7-AR1 cells): 20 pM

C[C@]12C=CC(=O)C=C1CC[C@@H]1[C@@H]2CC[C@@]2(C)[C@H]1CC[C@]2(C)O [Nerobol]
effect of actinomycin D on the stimulation of liver protein synthesis [1]: almost totally removed the effect | increase of protein synthesis in the system of polyribosomes and cellular fluid from livers of treated animals ([2]; mice, Nerobol 1.0 mg/100 g, P<0.001): 14%

C[C@]12C=CC(=O)C=C1CC[C@@H]1[C@@H]2CC[C@@]2(C)[C@H]1CC[C@]2(C)O [methandrostenolone]
down-regulation of caspase-3 [3]: < 2 fold | IC50 (MCF7-AR1 cells): 350 pM | effect on protein synthesis (C2C12 myotubes; concentrations up to 10 μM): no significant effect | down-regulation of Myostatin [4]: < 2 fold

CC(C)(O)CC[C@@H](O)[C@](C)(O)[C@H]1CC[C@@]2(O)C3=CC(=O)[C@@H]4C[C@@H](O)[C@@H](O)C[C@]4(C)[C@H]3[C@H](O)C[C@]12C [turkesterone]
weight of the ventral prostate and seminal vesicles [5, 8]: did not change | effect on the sexual apparatus (ventral prostate weight, seminal vesicle weight) [5]: pronounced effect | weight of the ventral prostate and seminal vesicles [5, 9]: did not change significantly | effect of actinomycin D on the stimulation of liver protein synthesis [1]: no noticeable effect | regulation of Caspase 3 expression [6]: significant effect in down regulation | protein synthesis, % of control (C2C12 myotubes; 40 nM): 110 % of control | protein synthesis, % of control (peak effect) (C2C12 myotubes; 0.1 μM): 120 % of control | ratio of test to control (weight gain) [7, 8]: 1.8 | weight gain [7, 10]: 38 mg per 1 g initial weight per day | ratio of test to control (weight gain) ([7]; sexually immature intact rats): 2.6 | total protein content of organs ([7]; sexually immature intact rats): statistically significant increase | body weight gain [7, 9]: 9.7 mg per 1 g weight per day | body weight gain relative to control [7, 9]: 2 times | ratio of translating to nontranslating ribosomes ([2]; mouse liver, control group 3.98): 3.80

turkesterone tetraacetate
weight of the ventral prostate and seminal vesicles [5, 8]: did not change | effect on the sexual apparatus (ventral prostate weight, seminal vesicle weight) [5]: pronounced effect | weight of the ventral prostate and seminal vesicles [5, 9]: did not change significantly | ratio of test to control (weight gain) [7, 8]: 1.9 | weight gain [7, 10]: 37.2 mg per 1 g initial weight per day | ratio of test to control (weight gain) ([7]; sexually immature intact rats): 2.5 | total protein content of organs ([7]; sexually immature intact rats): statistically significant increase | heart weight and weight of the anterior tibial muscle [7, 9]: statistically significant increase
